Results from ChEMBL document CHEMBL1201862, “PubChem BioAssay data set” (2004).
The source made the active and inactive calls. Rule as the data show it, for most assays here: actives have a measured EC50 and inactives only a lower limit.

Tests used:
[1] = target: T1, Replicative DNA helicase DnaB (Mycobacterium tuberculosis, UniProt P9WMR3); assay: DnaB intein splicing inhibitors, dose response, biochemical, cell-free fluorescence (AID 449749); type: functional
T1 sequence (P9WMR3 whole entry): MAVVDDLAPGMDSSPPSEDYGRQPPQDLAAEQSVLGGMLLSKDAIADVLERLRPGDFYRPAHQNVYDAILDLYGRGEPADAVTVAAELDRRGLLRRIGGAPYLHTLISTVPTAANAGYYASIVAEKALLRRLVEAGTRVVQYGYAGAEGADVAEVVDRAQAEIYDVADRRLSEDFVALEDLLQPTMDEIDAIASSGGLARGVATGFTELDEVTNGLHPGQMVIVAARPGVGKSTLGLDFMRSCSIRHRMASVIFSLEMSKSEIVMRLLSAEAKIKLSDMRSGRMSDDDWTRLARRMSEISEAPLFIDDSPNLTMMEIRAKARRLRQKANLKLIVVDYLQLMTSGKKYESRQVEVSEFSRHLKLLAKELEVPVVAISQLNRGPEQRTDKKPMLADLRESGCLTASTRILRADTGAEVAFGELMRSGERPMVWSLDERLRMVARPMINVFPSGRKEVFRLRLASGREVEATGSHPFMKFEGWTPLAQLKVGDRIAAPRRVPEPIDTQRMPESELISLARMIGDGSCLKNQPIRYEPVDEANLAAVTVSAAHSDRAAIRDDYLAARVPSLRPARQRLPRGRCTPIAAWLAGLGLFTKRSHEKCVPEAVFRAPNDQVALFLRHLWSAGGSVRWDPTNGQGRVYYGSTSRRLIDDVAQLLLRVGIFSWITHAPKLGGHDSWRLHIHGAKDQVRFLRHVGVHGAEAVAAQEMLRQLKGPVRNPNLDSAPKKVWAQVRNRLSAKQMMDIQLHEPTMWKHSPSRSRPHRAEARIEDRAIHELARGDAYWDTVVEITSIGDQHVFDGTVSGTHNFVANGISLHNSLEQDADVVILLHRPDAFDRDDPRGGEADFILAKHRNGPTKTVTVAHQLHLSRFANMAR

Protein RecA = target: T2, Protein RecA (Mycobacterium tuberculosis, UniProt P9WHJ3); assay: Fluorescence Cell-Free Homogeneous Dose Retest to Identify Inhibitors of RecA-Intein Splicing Activity. [Related pubchem assays (depositor defined):AID2097, AID2223, AID489010, AID492950]; type: functional
T2 sequence (P9WHJ3 whole entry): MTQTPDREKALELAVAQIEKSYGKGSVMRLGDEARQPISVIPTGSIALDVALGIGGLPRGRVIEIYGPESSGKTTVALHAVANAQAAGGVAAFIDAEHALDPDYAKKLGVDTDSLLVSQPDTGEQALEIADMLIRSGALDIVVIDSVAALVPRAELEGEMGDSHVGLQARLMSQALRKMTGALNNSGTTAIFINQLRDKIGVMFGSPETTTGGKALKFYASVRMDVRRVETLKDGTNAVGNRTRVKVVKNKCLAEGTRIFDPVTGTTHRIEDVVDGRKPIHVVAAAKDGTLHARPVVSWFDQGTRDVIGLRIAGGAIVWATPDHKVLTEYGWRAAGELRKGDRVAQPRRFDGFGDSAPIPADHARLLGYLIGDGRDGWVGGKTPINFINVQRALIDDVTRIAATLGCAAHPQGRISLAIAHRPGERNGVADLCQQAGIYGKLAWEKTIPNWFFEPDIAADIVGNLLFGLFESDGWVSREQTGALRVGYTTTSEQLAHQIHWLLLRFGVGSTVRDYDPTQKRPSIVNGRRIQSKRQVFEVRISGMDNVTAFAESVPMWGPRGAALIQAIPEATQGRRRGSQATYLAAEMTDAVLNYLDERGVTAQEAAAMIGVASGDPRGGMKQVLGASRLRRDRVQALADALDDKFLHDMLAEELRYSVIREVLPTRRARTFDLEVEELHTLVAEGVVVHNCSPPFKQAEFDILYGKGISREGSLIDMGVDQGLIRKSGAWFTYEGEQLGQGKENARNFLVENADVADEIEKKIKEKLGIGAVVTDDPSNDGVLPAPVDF

[2] = target: T3, Heat shock factor protein 1 (Mus musculus, UniProt P38532); assay: inhibition of MG132-induced HSE-luciferase signal, confirmation, cell-based, NIH3T3, luminescence, dose retest (AID 2382); type: functional;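 also: NIH3T3 fibroblasts with HSF1-driven luciferase reporter stressed by proteasome inhibitor MG132; luminescence from HSF1-driven luciferase expression after 8 hours of MG132 stress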
T3 sequence (P38532 whole entry): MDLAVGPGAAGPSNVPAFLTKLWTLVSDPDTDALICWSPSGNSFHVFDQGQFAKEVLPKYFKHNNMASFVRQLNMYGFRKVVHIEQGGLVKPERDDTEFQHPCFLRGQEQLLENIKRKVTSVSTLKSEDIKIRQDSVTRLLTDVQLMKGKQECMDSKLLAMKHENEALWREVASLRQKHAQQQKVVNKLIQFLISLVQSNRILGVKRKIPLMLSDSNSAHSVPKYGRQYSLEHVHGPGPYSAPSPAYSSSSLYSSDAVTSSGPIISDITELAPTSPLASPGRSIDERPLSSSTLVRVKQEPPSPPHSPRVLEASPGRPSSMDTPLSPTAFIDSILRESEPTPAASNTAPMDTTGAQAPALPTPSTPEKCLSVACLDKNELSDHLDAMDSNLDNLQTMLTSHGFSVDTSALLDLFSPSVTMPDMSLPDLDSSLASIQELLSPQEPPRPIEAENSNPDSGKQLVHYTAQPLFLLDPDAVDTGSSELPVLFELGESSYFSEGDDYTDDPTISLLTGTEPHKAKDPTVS

[3] = target: T4, RNA-binding protein pos-1 (Caenorhabditis elegans, UniProt G5EF15); assay: inhibitors of POS-1/mex-3 RNA binding, dose response, biochemical, fluorescence polarization (AID 1964);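 also: purified POS-1 fused to maltose binding protein made in E. coli; potency of compounds blocking POS-1 binding to fluorescent RNA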
T4 sequence (G5EF15 whole entry): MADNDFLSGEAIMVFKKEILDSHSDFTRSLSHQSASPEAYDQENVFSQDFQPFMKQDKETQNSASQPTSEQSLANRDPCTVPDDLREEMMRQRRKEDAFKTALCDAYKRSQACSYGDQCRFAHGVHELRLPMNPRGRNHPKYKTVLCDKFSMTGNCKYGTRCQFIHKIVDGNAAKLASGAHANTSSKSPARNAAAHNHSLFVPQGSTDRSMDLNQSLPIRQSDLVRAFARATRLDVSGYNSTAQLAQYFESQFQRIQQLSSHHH

[4] = target: T5, Zinc finger protein mex-5 (Caenorhabditis elegans, UniProt Q9XUB2); assay: MEX-5/TCR-2 RNA interaction inhibitors, dose response, biochemical, C. elegans, fluorescence polarization (AID 1960)
T5 sequence (Q9XUB2 whole entry): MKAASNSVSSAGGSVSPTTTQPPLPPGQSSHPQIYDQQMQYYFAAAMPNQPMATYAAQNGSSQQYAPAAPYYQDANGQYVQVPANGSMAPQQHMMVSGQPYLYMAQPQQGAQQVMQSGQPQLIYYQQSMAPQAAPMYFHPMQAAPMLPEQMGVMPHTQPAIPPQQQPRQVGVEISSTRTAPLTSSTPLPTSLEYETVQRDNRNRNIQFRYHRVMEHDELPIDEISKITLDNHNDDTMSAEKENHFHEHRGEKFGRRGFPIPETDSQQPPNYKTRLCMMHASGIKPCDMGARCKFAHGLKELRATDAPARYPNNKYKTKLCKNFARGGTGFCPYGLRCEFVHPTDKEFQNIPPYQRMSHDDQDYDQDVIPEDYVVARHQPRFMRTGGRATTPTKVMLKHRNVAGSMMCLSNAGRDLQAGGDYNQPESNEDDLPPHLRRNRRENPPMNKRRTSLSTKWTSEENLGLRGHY

Cytochrome P450 1A2 = target: T6, Cytochrome P450 1A2 (Homo sapiens, UniProt P05177);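 also: PubChem cytochrome P450 panel assay, CYP1A2 panel member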
T6 sequence (P05177 whole entry): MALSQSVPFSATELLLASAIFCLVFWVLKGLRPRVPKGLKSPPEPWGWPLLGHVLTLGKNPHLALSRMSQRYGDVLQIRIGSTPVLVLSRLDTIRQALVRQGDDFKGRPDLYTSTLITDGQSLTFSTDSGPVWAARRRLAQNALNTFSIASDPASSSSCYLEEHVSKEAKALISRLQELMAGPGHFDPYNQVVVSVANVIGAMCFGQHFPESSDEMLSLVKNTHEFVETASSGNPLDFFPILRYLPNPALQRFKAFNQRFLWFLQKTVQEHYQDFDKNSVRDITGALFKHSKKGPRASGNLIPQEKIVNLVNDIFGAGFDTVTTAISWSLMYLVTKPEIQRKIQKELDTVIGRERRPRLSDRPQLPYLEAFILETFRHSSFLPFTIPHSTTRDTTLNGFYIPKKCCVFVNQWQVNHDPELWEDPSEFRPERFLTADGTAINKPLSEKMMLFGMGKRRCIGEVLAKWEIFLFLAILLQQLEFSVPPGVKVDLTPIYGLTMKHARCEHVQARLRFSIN

[5] = Luminescence Cell-Based Dose Response HTS to Identify Activators of Luciferase Translation or Activity in H4 […] Cells. [Related pubchem assays: 1829 (Project Summary), 1814 (Primary HTS)]; type: functional
H4 = assay: Luminescence Cell-Based Dose Response HTS to Identify Activators of 5'UTR Stem-Loop Driven Prion Protein mRNA Translation in H4 Neuroglioblastoma Cells. [Related pubchem assays: 1829 (Project Summary), 1814 (Primary HTS)]; type: functional; details: Homo sapiens

| SMILES | EC50 [2] | EC50 [3] | EC50 [4] | other results |
| --- | --- | --- | --- | --- |
| CCOC(=O)/C(C#N)=C1/SC(C)C(=O)N1c1ccc(Br)cc1 (configuration not stated) | – | – | – | AC50 [1]: 21 µM (active); EC50 (Protein RecA): 11.1 µM (active) |
| CC(C)(C)c1cnnn1-c1ccc(C(=O)CCl)cc1 | – | – | – | AC50 [1]: 4.17 µM (active); EC50 (Protein RecA): 2.89 µM (active) |
| COc1cc2c(cc1OC)C(/C=C(\O)c1ccc(C)cc1)=NCC2 | > 195 µM (not active) | – | – | – |
| CCOC(=O)N1CCC(c2cc(=O)n(-c3ccccc3)[nH]2)CC1 | – | – | – | AC50 [1]: 3.66 µM (active); EC50 (Protein RecA): 2.51 µM (active) |
| Cc1n[nH]c(N=Nc2ccc(O)cc2)n1 | – | > 300 µM (not active) | 4.83 µM (active) | – |
| CCOC(=O)Cc1nc2ccccc2n(CC#N)c1=O | – | > 300 µM (not active) | > 300 µM (not active) | – |
| CCOC(=O)[C@]1(C#N)[C@@H]2C=CC(C(C)=O)=CN2[C@@H](C(N)=O)[C@@H]1c1ccsc1 | – | 2.5 µM (active) | 12.3 µM (active) | – |
| CCOC1(OCC)C(c2ccc(Cl)cc2)C(C#N)(C#N)C1(OCC)OCC (configuration not stated) | – | – | – | AC50 [1]: 148 µM (active); EC50 (Protein RecA): > 380 µM (inconclusive) |
| CN1CC=C2C(C#N)=C(N)C(C#N)(C#N)C(c3ccncc3)C2C1 (configuration not stated) | – | 52.9 µM (inconclusive) | 7.73 µM (active) | – |
| CCOc1ccc2nc(NC(=O)/C=C/c3ccc4c(c3)OCO4)sc2c1 | > 195 µM (not active) | – | – | – |
| COc1ccc(N2CCN(c3oc(Cc4ccccc4)nc3C#N)CC2)cc1 | > 195 µM (not active) | – | – | – |
| Cc1ccc(C(=O)C2C(c3ccc(-c4ccccc4[N+](=O)[O-])o3)NC(=O)NC2(O)C(F)(F)F)cc1 (configuration not stated) | – | – | – | AC50 [1]: 5.13 µM (active); EC50 (Protein RecA): 11.6 µM (active) |
| CCO/C(C)=N/n1c2nc3ccccc3nc2c2c(=O)n(C3CCCC3)c(C)nc21 | – | > 300 µM (not active) | > 300 µM (not active) | – |
| COc1cccc(N2CCN(C(S)=Nc3cc(C)cc(C)c3)CC2)c1 | 94.4 µM (active) | – | – | – |
| Cc1ccc(S(=O)(=O)N/N=C/c2c(C)nn(-c3ccccc3)c2C)cc1 | > 195 µM (not active) | – | – | – |
| CCCCOc1cccc(C2C(C(=O)c3cccs3)=C(O)C(=O)N2Cc2cccnc2)c1 (configuration not stated) | > 195 µM (not active) | – | – | – |
| Cc1ccc(OCCC(=O)OCC(=O)Nc2ccc(N3CCOCC3)cc2)cc1 | > 195 µM (not active) | – | – | – |
| O=C(CC1CCCCC1)NCc1ccccn1 | > 195 µM (not active) | – | – | – |
| CCCCc1ccc(/C=C2\C(=O)ON=C2c2ccccc2)s1 | – | 68 µM (active) | 87.7 µM (active) | – |
| NCCCC(=O)O [GAMMA-AMINOBUTYRIC ACID] | > 195 µM (not active) | – | – | AC50 (Cytochrome P450 1A2): 31.6 µM (inconclusive) |
| Cc1n[nH]c2c1C(c1c(C)nn(-c3ccccc3)c1C)C(C#N)=C(N)O2 (configuration not stated) | – | – | – | AC50 [1]: 18.6 µM (active); EC50 (Protein RecA): 12.5 µM (active) |
| Cc1ccc(N(CC(=O)Nc2ccc(-c3nc4ccc(C)cc4s3)cc2)S(C)(=O)=O)cc1 | – | – | – | EC50 [5]: 1.19 µM (active); EC50 (H4): > 120 µM (not active) |
| Cc1nc(N2CCN(Cc3ccccc3)CC2)c(C#N)c2c1COC(C)(C)C2 | – | 94.5 µM (active) | 108 µM (active) | – |
| Cn1c2ccccc2c2cnn(CC(=O)N3CCC4(CC3)OCCO4)c(=O)c21 | 39.3 µM (active) | – | – | – |
| Nc1n[nH]c(Sc2ccc([N+](=O)[O-])cc2[N+](=O)[O-])n1 | – | 85.7 µM (active) | 30.1 µM (active) | – |
| CN1N=C2c3ccccc3CCC2C1c1ccc(C(F)(F)F)cc1 (configuration not stated) | 79.4 µM (active) | – | – | – |
